Laboratory results as given in US20050130894A1, “Process for the synchronization of ovulation for timed breeding without heat detection” (priority 2003, published 2005).

Columns and labels:
Assay type in all cases: in vivo, swine
postpartum sows [1] = test: Pregnancy rate after deslorelin treatment in sows, summary of data of Tables 2-5; details: Table 6
Procedure: Approximately 170 postpartum sows were randomly divided into two equal groups comprised of controls and treated. Following weaning, the controls were detected for estrus and bred following the normal standard operating procedures for the farms on which they resided. The treated sows received a 50 mcg dose of deslorelin in SAIB at 96 hours post-weaning and were bred with a single insemination 28+/−2 hours later with no regard to estrus detection. The sows were examined for pregnancy by ultrasound at 21 days and slaughtered around 28 days post breeding. The entire reproductive tract was removed and corpora lutea and embryos were counted. Postpartum sows were randomly distributed into three different groups comprised of Controls, Treatment 1, and Treatment 2, with the exception of Site 3, which was divided into two groups, Control and Treatment 2. Control sows were detected for estrus following weaning, and bred following the normal standard operating procedures for the farms on which they resided. Treatment 1 sows were detected for estrus following weaning, and received a 50 mcg dose of deslorelin in the morning when standing and were bred by AI 4 hours later and again at 24+/−2 hours later. Treatment 2 sows received a 50 mcg dose of deslorelin in SAIB at 96 or 120 hours post-weaning and were bred with a single insemination 28+/−2 hours later with no regard to estrus detection. […]

mature postpartum sows = test: Intravulvar injection at estrus detection in mature postpartum sows, AI breeding (Example 2)
Procedure: Sows were assigned randomly in blocks of two to either control or to be injected intravulvar with 50 mcg of deslorelin in SAIB at the time of estrus detection for sows first detected in estrus in the a.m. and 12 hours later for those first detected in estrus in the p.m. Treated animals were bred AI upon detected estrus and again 24 hours later if still in estrus. Controls received a saline injection on first detected estrus behavior estrus detection and were bred according to the farm's normal procedures.

postpartum sows [2] = test: Litter size after deslorelin treatment in postpartum sows, three farm sites (Example 4); details: regardless of estrus detection, Tables 3-5
Excerpt: Postpartum sows were randomly distributed into three different groups comprised of Controls, Treatment 1, and Treatment 2, with the exception of Site 3, which was divided into two groups, Control and Treatment 2. Control sows were detected for estrus following weaning, and bred following the normal standard operating procedures for the farms on which they resided. Treatment 1 sows were detected for estrus following weaning, and received a 50 mcg dose of deslorelin in the morning when standing and were bred by AI 4 hours later and again at 24+/−2 hours later. Treatment 2 sows received a 50 mcg dose of deslorelin in SAIB at 96 or 120 hours post-weaning and were bred with a single insemination 28+/−2 hours later with no regard to estrus detection.

postpartum sows [3] = test: Single timed injection 96 hours post-weaning, single timed insemination without estrus detection (Example 3); details: 50 mcg in SAIB at 96 hours post-weaning
Procedure: Approximately 170 postpartum sows were randomly divided into two equal groups comprised of controls and treated. Following weaning, the controls were detected for estrus and bred following the normal standard operating procedures for the farms on which they resided. The treated sows received a 50 mcg dose of deslorelin in SAIB at 96 hours post-weaning and were bred with a single insemination 28+/−2 hours later with no regard to estrus detection. The sows were examined for pregnancy by ultrasound at 21 days and slaughtered around 28 days post breeding. The entire reproductive tract was removed and corpora lutea and embryos were counted.

CCNC(=O)[C@@H]1CCCN1C(=O)[C@H](CCCN=C(N)N)NC(=O)[C@H](CC(C)C)NC(=O)[C@@H](Cc1c[nH]c2ccccc12)NC(=O)[C@H](Cc1ccc(O)cc1)NC(=O)[C@H](CO)NC(=O)[C@H](Cc1c[nH]c2ccccc12)NC(=O)[C@H](Cc1cnc[nH]1)NC(=O)[C@@H]1CCC(=O)N1 [Deslorelin, deslorelin]
Pregnancy rates (in words) (postpartum sows [1]): normal pregnancy rates were obtained
Pregnancy Rate (mature postpartum sows; 50 μg deslorelin acetate (1 ml) intravulvar at first estrus detection, AI, AI again if in estrus next day, n = 75): 91%
Length of Estrus (mature postpartum sows; 50 μg deslorelin acetate (1 ml) intravulvar at first estrus detection, n = 69): 40.81 h
Live piglet number, Deslorelin versus Saline sows (difference) (mature postpartum sows; 50 μg intravulvar at first estrus detection, live piglets born per litter, greater than control): Live piglet number 0.6> in Deslorelin versus Saline sows.
Litter sizes (in words) (postpartum sows [2]): normal litter sizes
Embryo Survival (postpartum sows [3]): 64%
Sows Pregnant (postpartum sows [3]; single insemination 28+/-2 hours later, 84 in group): 60
Pregnancy Rate (postpartum sows [3]; single timed insemination, no estrus detection): 71%
